The values below come from patent US8981111B2 (priority 2008, dated 2015).

A short description of the data set: log P (HPLC/MS data of the preparation examples). The conditions noted are these: for log p: linear gradient 10% to 95% acetonitrile.
The mark [1] stands for this setting: LC-MS, method [b]: pH 2.7 with 0.1% formic acid in water and acetonitrile.
[2] abbreviates: method [b]: LC-MS at pH 2.7, 0.1% formic acid in water / acetonitrile.

Take “N-(6-{[({(3-bromo-4-methoxyphenyl)[3-chloro-5-(trifluoromethyl)pyridin-2-yl]methylene}amino)oxy]methyl}pyridin-2-yl)-3-methylbutanamide [Example 444]”: the “log P(HCOOH)” value is 5.03. In addition, where the note is “HPLC (LC-MS) method [b]: pH 2.7, 0.1% formic acid in water and acetonitrile, EEC directive 79/831 Annex V.A8”, the log p was 1.69^[b]. For the substance “N-(cyclopropylcarbonyl)-N-(2-{[({[2-(cyclopropylcarbonyl)-1-methyl-1H-imidazol-5-yl](phenyl)methylene}amino)oxy]methyl}pyrimidin-4-yl)cyclopropanecarboxamide [Example 312]”, the log p under setting [1] was 2.22^[b]. On to “N-{2-[({[(1-methyl-1H-imidazol-2-yl)(phenyl)methylene]amino}-oxy)methyl]pyrimidin-4-yl}cyclopropanecarboxamide [Example 193]”, for which the “log P(HCOOH)” value is listed as 1.50. Under setting [2], the log p was 1.54^[b]. Turning to “pentyl{2-[({[(1-methyl-1H-imidazol-2-yl)(phenyl)methylene]amino}oxy)-methyl]pyrimidin-4-yl}carbamate [Example 61]”, the “log P(HCOOH)” value is on record as 2.28. The log p under setting [1] was 1.92^[b]. “pentyl{2-[({[(1-methyl-1H-imidazol-5-yl)(phenyl)methylene]amino}oxy)-methyl]pyrimidin-4-yl}carbamate [Example 139]”: the “log P(HCOOH)” value stood at 2.66. Also, the log p under setting [2] is 3.19^[b].
